Laboratory results published in US10513694B2, “Thienopyrrole compounds and uses thereof” (PROMEGA CORPORATION, priority 2015, dated 2019).
“Also recorded” adds a separate entry of the source.

Tests used:
[1] = tested on: firefly luciferase, e.g., ULTRAGLO® luciferase; assay: Specificity of inhibition: firefly luciferase activity; assay type: biochemical; settings: 1 μM luciferin in Luciferase Detection Reagent; RT 2 hrs
In short: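 Counter-screen against firefly (ULTRAGLO®) luciferase: 1 μM luciferin in detection reagent mixed with equal volume of compound titrations. After 2 hrs at RT, luminescence read.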

[2] = tested on: Nluc-HALOTAG labeled with NANOBRET 618 ligand; assay: Inhibition of extracellular BRET; assay type: cell-based; settings: HEK293 Nluc-HDAC6; 10 ng/mL extracellular Nluc-HALOTAG/NANOBRET 618; 2 hrs
[3] = target: T1, purified Nluc (extracellular); Nluc-HALOTAG fusion protein (intracellular) (Oplophorus gracilirostris, UniProt Q9GV45, A31E/A60N/A81I/F95D/I117V/K70R/L54V/L99Q/M102K/N193R/P142E/Q151K/Q38R/Q45L/V71I/Y165I); assay: Inhibition of extracellular luciferase activity and enhancement of intracellular BRET; assay type: cell-based; settings: HEK293 Nluc-HALOTAG + NANOBRET 618; 10 ng/mL extracellular purified Nluc; 2 hrs
T1 construct: expressed in transfected cells; host or cells: HEK293 (Nluc-HaloTag); purified Nluc added from outside
T1 sequence (Q9GV45 28-196 with tags or gaps with the stated changes limits assumed): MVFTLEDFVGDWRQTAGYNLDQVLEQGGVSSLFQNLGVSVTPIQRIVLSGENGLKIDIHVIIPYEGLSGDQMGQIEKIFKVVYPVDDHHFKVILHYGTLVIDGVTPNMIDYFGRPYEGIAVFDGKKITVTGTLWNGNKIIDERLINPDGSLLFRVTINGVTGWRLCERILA

Nluc [4] = target: T2, Nluc (Oplophorus gracilirostris, UniProt Q9GV45, A31E/A60N/A81I/F95D/I117V/K70R/L54V/L99Q/M102K/N193R/P142E/Q151K/Q38R/Q45L/V71I/Y165I); assay: Specificity of inhibition of Nluc luciferase: Nluc; assay type: biochemical
T2 sequence (Q9GV45 28-196 with tags or gaps with the stated changes limits assumed): as above

Nluc [5] = target: T2, Nluc; assay: Multiplex RealTime-Glo / Caspase-Glo 3/7 in DMEM media; assay type: biochemical; parameters: purchased Promega Corporation; settings: for Avg (luminescence), 1 hour: RealTime-Glo reagent in DMEM + Caspase-Glo 3/7
Procedure: In a Corning 3570 assay plate, 1× REAL-TIME-GLO™ MT Cell Viability assay reagent was prepared in 40 μL DMEM media (n=3) and incubated overnight. Next, 40 μL of a titration of JRW-0147 or JRW-0344 (2× concentration in CASPASE-GLO® 3/7 Assay Reagent (Promega Corporation)) was added. The reactions were incubated at room temperature, and luminescence determined at 1 hour.

Nluc luciferase = Nluc luciferase (Oplophorus gracilirostris, UniProt Q9GV45, A31E/A60N/A81I/F95D/I117V/K70R/L54V/L99Q/M102K/N193R/P142E/Q151K/Q38R/Q45L/V71I/Y165I); assay type: cell-based; parameters: expressed in transfected cells; host or cells: HEK293; settings: HEK293; 10, 30 or 120 minutes
Chain of Nluc luciferase (Q9GV45 28-196 with tags or gaps with the stated changes limits assumed): as above
Procedure: HEK293 cells were transiently transfected with Nluc luciferase to express it cytosolically. Twenty-four hours post-transfection, cells were exposed to a compound response curve of the thienopyrrole compound JRW-0147 or JRW-0013 for 10 minutes, 30 minutes, or 120 minutes. 10 μM furimazine was then added, and luminescence was measured.

## CCN(C(=O)Cn1c(C(=O)N[C@H]2CC[C@H](C(=O)NCCCCCC(=O)O)CC2)cc2sccc21)c1cccc(C)c1 [JRW-0147, 6-(trans-4-(4-(2-(ethyl(m-tolyl)amino)-2-oxoethyl)-4H-thieno[3,2-b]pyrrole-5-carboxamido)cyclohexane-1-carboxamido)hexanoic acid]
[1]
  Inhibition of firefly luciferase activity (FIG. 3): do not inhibit firefly luciferase activity; also recorded: did not inhibit the firefly luciferase activity
[2]
  BRET ratio 610/450 nm across compound dose-response curve (FIGS. 12B-12E): BRET ratio decreased
[3]
  BRET ratio 610/450 nm across compound dose-response curve (FIGS. 13B-13E): intracellular BRET ratio was enhanced
Nluc [4]; [cmpd] 0.1953125 μM
  Nluc, Avg (luminescence): 115442
  Nluc, S/B: 0.97
Nluc [4]; [cmpd] 0.390625 μM
  Nluc, Avg (luminescence): 113278
  Nluc, S/B: 0.95
Nluc [4]; [cmpd] 0.78125 μM
  Nluc, Avg (luminescence): 111603
  Nluc, S/B: 0.94
Nluc [4]; [cmpd] 1.5625 μM
  Nluc, Avg (luminescence): 103399
  Nluc, S/B: 0.87
Nluc [4]; [cmpd] 3.125 μM
  Nluc, Avg (luminescence): 96256
  Nluc, S/B: 0.81
Nluc [4]; [cmpd] 6.25 μM
  Nluc, Avg (luminescence): 79191
  Nluc, S/B: 0.67
Nluc [4]; [cmpd] 12.5 μM
  Nluc, Avg (luminescence): 66480
  Nluc, S/B: 0.56
Nluc [4]; [cmpd] 25 μM
  Nluc, Avg (luminescence): 54498
  Nluc, S/B: 0.46
Nluc [4]; [cmpd] 50 μM
  Nluc, Avg (luminescence): 42630
  Nluc, S/B: 0.36
Nluc [4]; [cmpd] 100 μM
  Nluc, Avg (luminescence): 32702
  Nluc, S/B: 0.27
Nluc [4]; [cmpd] 200 μM
  Nluc, Avg (luminescence): 23722
  Nluc, S/B: 0.20
Nluc [5]; [cmpd] final 0.09765625 μM
  S/B, 1 hour: 0.84
  Avg (luminescence), 1 hour: 117067
Nluc [5]; [cmpd] final 0.1953125 μM
  S/B, 1 hour: 0.89
  Avg (luminescence), 1 hour: 124500
Nluc [5]; [cmpd] final 0.390625 μM
  S/B, 1 hour: 0.85
  Avg (luminescence), 1 hour: 117833
Nluc [5]; [cmpd] final 0.78125 μM
  S/B, 1 hour: 0.77
  Avg (luminescence), 1 hour: 106867
Nluc [5]; [cmpd] final 1.5625 μM
  S/B, 1 hour: 0.47
  Avg (luminescence), 1 hour: 65173
Nluc [5]; [cmpd] final 3.125 μM
  S/B, 1 hour: 0.32
  Avg (luminescence), 1 hour: 45167
Nluc [5]; [cmpd] final 6.25 μM
  S/B, 1 hour: 0.20
  Avg (luminescence), 1 hour: 27817
Nluc [5]; [cmpd] final 12.5 μM
  S/B, 1 hour: 0.12
  Avg (luminescence), 1 hour: 17293
Nluc [5]; [cmpd] final 25 μM
  S/B, 1 hour: 0.08
  Avg (luminescence), 1 hour: 10699
Nluc [5]; [cmpd] final 50 μM
  S/B, 1 hour: 0.06
  Avg (luminescence), 1 hour: 8136
Nluc [5]; [cmpd] final 100 μM
  S/B, 1 hour: 0.05
  Avg (luminescence), 1 hour: 6568
Nluc luciferase
  Change in RLUs from cytosolic Nluc (FIG. 16): no significant change in RLUs from Nluc
